Test [1] can be described thus: HEK293 Cytotoxicity Assay Measured in Cell-Based System Using Plate Reader - 7071-01_Inhibitor_Dose_CherryPick_Activity_Set2. The format is functional.
Test [2] deals with HEK293. The test is described as follows: viability loss in HEK293T cells – cell-based, ATP luminescence, cherry-pick samples, cytotoxicity control, dose response (AID 687005).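 Also: cells exposed to compound for 48 hours.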 To be noted: Homo sapiens. The class given is functional.
Test [3] concerns the target FAD-linked sulfhydryl oxidase ALR (Homo sapiens, UniProt P55789). The test is described as follows: ALR-catalysed DTT oxidation blockers – biochemical, H2O2 detection, luminescence, cherry-pick, dose response (AID 493248).
Test [4] has as its target 5-hydroxytryptamine receptor 2A (Mus musculus, UniProt P35363). The class given is functional, cell-based.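 Also: CHO-K1 cells with tagged receptor and beta-arrestin; agonist potency measured as compound-induced activation of the receptor.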
Test [5] deals with Mu-type opioid receptor (Homo sapiens, UniProt P35372). The format is functional, cell-based.
Mu-type opioid receptor, sequence (P35372 whole entry): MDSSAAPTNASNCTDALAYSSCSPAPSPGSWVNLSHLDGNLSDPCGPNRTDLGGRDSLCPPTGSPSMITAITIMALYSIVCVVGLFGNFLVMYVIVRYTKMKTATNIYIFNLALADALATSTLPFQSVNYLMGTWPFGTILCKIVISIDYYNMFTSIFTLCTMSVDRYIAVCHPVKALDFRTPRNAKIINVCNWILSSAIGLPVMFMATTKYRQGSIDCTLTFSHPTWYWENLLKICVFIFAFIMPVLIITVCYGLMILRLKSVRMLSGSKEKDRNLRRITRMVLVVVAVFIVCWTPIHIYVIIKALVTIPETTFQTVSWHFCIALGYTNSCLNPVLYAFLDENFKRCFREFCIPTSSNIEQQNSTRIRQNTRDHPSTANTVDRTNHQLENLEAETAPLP
Test [6] can be described thus: Luminescence Cell-Based Dose Retest to Confirm Inhibitors of Cancer Stem Cells. [Related pubchem assays (depositor defined):AID2717, AID2721]. The class given is functional. The conditions noted are these: Homo sapiens.
A short description of test [7]: general cell-killing toxicity readout – plate reader, dry powder samples, cytotoxicity control for PAX8 inhibitor project, dose response (AID 743021). The format is functional, cell-based.
Test [8] deals with Paired box protein Pax-8 (Homo sapiens, UniProt Q06710). The test is described as follows: PAX8 transcriptional activity inhibition in RMG-I – RMG-I cells, luciferase, cherry-pick, dose response (AID 687027).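 Also: luciferase reporter driven by Pax8 target thyroperoxidase promoter measured by SteadyGlo luminescence.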 The format is functional, cell-based.
Paired box protein Pax-8, sequence (Q06710 whole entry): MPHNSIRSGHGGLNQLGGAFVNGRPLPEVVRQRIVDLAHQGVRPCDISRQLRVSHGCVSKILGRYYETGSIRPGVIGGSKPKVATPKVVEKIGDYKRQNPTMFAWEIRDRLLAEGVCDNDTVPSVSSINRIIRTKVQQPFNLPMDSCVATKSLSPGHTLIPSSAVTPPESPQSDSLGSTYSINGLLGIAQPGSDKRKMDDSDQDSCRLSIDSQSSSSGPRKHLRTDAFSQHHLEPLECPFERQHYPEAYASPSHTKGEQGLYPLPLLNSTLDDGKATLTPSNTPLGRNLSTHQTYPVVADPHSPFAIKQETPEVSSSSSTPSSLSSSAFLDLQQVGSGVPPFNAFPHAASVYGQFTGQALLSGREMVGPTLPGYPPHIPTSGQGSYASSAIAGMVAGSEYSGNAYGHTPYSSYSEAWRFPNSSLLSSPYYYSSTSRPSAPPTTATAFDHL
For test [9], the target named is Beta Lactamase (Pseudomonas aeruginosa, UniProt Q932Y6). The test is described as follows: BLA reporter interference, concentration series – BLA reporter cells, FRET fluorescence, artefact control for NOD2-RIPK2 interaction inhibitor project, dose response (AID 651552). The format is functional, cell-based.
Beta Lactamase, sequence (Q932Y6 whole entry, the tested form may be a part): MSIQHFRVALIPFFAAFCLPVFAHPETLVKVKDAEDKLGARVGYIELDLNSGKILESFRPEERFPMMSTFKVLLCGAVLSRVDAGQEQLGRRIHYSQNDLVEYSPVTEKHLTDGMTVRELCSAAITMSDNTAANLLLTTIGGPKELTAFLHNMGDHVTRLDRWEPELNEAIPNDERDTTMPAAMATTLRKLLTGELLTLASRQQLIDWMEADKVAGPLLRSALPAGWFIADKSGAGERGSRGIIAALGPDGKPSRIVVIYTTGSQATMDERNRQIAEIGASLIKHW
The nature of test [10]: Fluorescence-based cell-based high throughput dose response assay for inhibitors of the interaction of nucleotide-binding oligomerization domain containing 2 (NOD2) and the receptor-interacting serine-threonine kinase 2 (RIPK2). The class given is functional. The conditions noted are these: Homo sapiens.
For test [11], the system named is A549. The test is described as follows: viability loss in A549 cells – cell-based, plate reader, cherry-pick samples, cytotoxicity control, dose response (AID 687028). The format is functional. To be noted: Homo sapiens.
Test [12] relates to HeLa. The test is described as follows: viability loss in HeLa cells – cell-based, ATP luminescence, cherry-pick samples, cytotoxicity control, dose response (AID 687004). The class given is functional. The conditions noted are these: Homo sapiens.
Test [13] concerns the target T1, Adenosylmethionine-8-amino-7-oxononanoate aminotransferase (Mycobacterium tuberculosis, UniProt P9WQ81).
T1 sequence (P9WQ81 whole entry): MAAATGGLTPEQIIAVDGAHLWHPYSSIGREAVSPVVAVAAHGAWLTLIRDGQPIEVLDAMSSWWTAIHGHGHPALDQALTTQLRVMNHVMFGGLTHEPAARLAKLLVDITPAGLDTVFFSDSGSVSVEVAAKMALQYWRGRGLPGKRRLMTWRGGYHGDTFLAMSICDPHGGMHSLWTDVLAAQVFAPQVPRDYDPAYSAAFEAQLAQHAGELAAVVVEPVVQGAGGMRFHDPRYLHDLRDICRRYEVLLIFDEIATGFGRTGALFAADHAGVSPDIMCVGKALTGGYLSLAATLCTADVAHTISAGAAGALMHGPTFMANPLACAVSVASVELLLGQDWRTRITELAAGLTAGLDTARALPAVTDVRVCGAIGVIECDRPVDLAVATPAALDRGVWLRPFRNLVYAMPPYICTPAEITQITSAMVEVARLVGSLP
The test is described as follows: Mycobacterium tuberculosis BioA enzyme inhibitor Measured in Biochemical System Using Plate Reader - 2163-02_Inhibitor_Dose_CherryPick_Activity. The class given is functional, Mycobacterium tuberculosis UT205.

Test [14] is described as follows: general mammalian cell viability loss – inhibitor set, cherry-pick, set 2, cytotoxicity control for miR-122 modulator project, dose response (AID 720697). The class given is functional, cell-based.
Test [15] can be described thus: Luminescence Cell-Based Dose Response HTS to Identify Inhibitors of 5'UTR Stem-Loop Driven Prion Protein mRNA Translation in H4 Neuroglioblastoma Cells. [Related pubchem assays: 1827 (Project Summary), 1813 (Primary HTS)]. The class given is functional.
Test [16] in a line: luciferase reporter signal suppression in cells – H4 neuroglioma cells, luminescence, dose response (AID 1990). The format is functional, cell-based. For orientation: A reporter such as luciferase makes a cellular process visible.
A short description of test [17]: alpha-synuclein stem-loop luciferase translation blockers – H4 neuroglioma cells, luminescence, confirmation (AID 1988). The class given is functional, cell-based.
Test [18] in a line: activation of miR-122 Renilla sensor silencing – cell-based, Huh7 psiCHECK-miR122, Renilla luciferase, cherry-picked, dose response (AID 651956).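 Also: huh7 hepatoma cells stably carrying a psiCHECK-2 miR-122 sensor plasmid; renilla luciferase signal reporting endogenous miR-122 activity after 48 h compound exposure.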 The class given is functional.
A short description of test [19]: loss of viability in HepG2 cells – cell-based, CellTiter-Glo, cherry-picked, cytotoxicity control for Shn3 inhibitor project, dose response (AID 624134). The class given is functional. (In ATP-based viability assays light output follows the ATP content of the culture.)
Test [20] in a line: non-specific 3'UTR reporter inhibition in Clone20-Shn3RL – cell-based, Renilla luciferase, cherry-picked, counter-screen for Shn3 inhibitor project, dose response (AID 624133). The format is functional. On the technique in general: The purpose of a counterscreen is to sort out artefacts and off-target activity.
A short description of test [21]: reduction of Shn3 3'UTR-driven luciferase in osteoblasts – cell-based, Clone20 osteoblasts, firefly luciferase, cherry-picked, dose response (AID 624132).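 Also: firefly luciferase luminescence from reporter carrying the Shn3 3'UTR in osteoblasts.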 The class given is functional.
Test [22] is described as follows: Shn3 3'UTR reporter signal decrease – cell-based, Clone20 osteoblasts, firefly luciferase, cherry-pick, set 2, Schnurri-3 inhibitor project, dose response (AID 720490).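 Also: actives lower the luminescence signal as inhibitors.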 The class given is functional.
Test [23] in a line: EF1alpha-driven Renilla reporter with control 3'UTR suppression – Clone20-Shn3RL cells, dual-Glo, cherry-pick, set 2, counter-screen for Shn3 3'UTR targeting project, dose response (AID 720724). The format is functional, cell-based. The conditions noted are these: Dual-Go Shn3RL.
Test [24] can be described thus: HEK293 cell viability loss – cherry-picked samples, cytotoxicity control, dose response (AID 1053185). The class given is functional, cell-based.
Test [25] is described as follows: HepG2 cell viability loss – cherry-picked samples, cytotoxicity control, dose response (AID 1053183). The format is functional, cell-based.
In test [26] the target is Oxysterols receptor LXR-beta (Homo sapiens, UniProt P55055). The format is functional, cell-based.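 Also: agonist activity at LXR measured by a cell-based luminescence readout across a dose range, run as a counterscreen for daf-12 agonists; HEK293 cells with Gal4-LXR fusion and GAL4-driven luciferase reporter; potency for activation of Gal4-LXR reporter so compounds are agonists.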
Oxysterols receptor LXR-beta, sequence (P55055 whole entry, the tested form may be a part): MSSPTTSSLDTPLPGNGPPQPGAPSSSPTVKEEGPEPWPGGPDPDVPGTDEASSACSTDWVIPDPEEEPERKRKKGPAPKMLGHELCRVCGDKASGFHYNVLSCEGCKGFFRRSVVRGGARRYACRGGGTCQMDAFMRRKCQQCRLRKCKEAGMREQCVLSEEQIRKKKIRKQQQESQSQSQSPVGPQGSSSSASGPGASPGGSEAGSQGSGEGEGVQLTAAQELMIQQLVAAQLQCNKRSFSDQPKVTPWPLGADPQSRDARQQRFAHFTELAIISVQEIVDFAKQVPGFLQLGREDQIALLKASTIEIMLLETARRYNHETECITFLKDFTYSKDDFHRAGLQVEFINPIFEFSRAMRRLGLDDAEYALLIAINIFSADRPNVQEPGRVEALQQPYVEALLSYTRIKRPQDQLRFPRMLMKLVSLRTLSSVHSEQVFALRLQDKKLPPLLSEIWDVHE

SMILES strings stand for the structures. Active and inactive are the calls of the source. Where only a bound is given, the exact number is not on record here.

FAD-linked sulfhydryl oxidase ALR, sequence (P55789 whole entry): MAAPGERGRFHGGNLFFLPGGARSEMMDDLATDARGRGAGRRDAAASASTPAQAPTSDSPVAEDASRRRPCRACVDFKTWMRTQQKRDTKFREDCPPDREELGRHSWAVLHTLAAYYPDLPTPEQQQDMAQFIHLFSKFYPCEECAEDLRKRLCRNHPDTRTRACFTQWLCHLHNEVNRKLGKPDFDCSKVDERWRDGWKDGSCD
5-hydroxytryptamine receptor 2A, sequence (P35363 whole entry): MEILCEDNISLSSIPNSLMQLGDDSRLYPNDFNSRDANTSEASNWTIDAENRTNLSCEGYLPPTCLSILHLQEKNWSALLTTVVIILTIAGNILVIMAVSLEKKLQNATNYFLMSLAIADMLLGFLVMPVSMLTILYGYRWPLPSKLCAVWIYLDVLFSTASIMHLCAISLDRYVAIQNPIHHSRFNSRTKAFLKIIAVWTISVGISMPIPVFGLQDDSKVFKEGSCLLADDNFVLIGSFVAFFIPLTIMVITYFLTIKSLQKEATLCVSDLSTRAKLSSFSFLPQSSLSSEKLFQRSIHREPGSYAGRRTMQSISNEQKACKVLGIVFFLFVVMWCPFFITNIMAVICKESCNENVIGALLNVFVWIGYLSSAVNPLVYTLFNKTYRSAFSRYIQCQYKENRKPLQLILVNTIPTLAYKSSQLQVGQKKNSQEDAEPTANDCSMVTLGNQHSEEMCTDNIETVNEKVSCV

The term AC50 denotes the midpoint of the concentration-response curve, whichever way the signal moves. As for `C[C@@H]1CN([C@@H](C)CO)C(=O)Cc2cc(NC(=O)c3ccncc3)ccc2O[C@H]1CN(C)Cc1ccncc1`, the AC50 in test [1] and in test [2] was > 52 µM (inactive) each time.
Usually EC50 stands for the concentration needed to bring the measured effect to its halfway point. As for `COc1ccccc1C(=O)NCCN1CCN(c2ccccc2)CC1`, the half-maximal activity concentration (AC50) in test [3] was 3.86 µM (active). Further, the figures for the EC50 in [4] and in test [5] were 0.662 µM (active) and 92.5 µM (inactive), respectively.
Broadly, the IC50 is the concentration that inhibits the measured activity by half. As to `CC(C)(C)[C@H](N)C(=O)N[C@H]1CCC2C3CC=C4C[C@@H](O)CC[C@]4(C)C3CC[C@@]21C` (stereo partly specified), the AC50 in [6] was 3.67 µM (active); in test [7], 40.7 µM (active); in test [8], 9.31 µM (active). In addition, the IC50 in test [9] is 19.5 µM (inactive); in test [10] it was 17.7 µM (inactive).
On to `COc1ccc(S(=O)(=O)N2CCN(CC(=O)NC3CC3)CC2)cc1`, for which the half-maximal activity concentration (AC50) in test [11] was 35.1 µM (active).
For `O=C(C1CCOCC1)N1CC[C@@H]2[C@H]1c1cc(Br)ccc1N[C@@H]2CO`, the AC50 in test [12] was > 52 µM (inactive); in test [13] it was 4.59 µM (active).
For `Cc1oc(-c2ccc(Cl)cc2)nc1CN1CCCC(C(=O)NCc2ccco2)C1` (stereo unspecified), the figures for the AC50 in test [14] and in test [18] were 1.3 µM (active) and 6.37 µM (active), respectively. For the same compound, the EC50 in test [15], in test [16] and in test [17] was > 120 µM (not active) each time.
`Cc1ccc2nc(NC(=O)C3CCN(S(=O)(=O)c4ccc5c(c4)oc(=O)n5C)CC3)sc2c1`: the AC50 in test [19] was 54.7 µM (active); in test [20], 11.1 µM (active); in test [21] it was 3.35 µM (active); in [22], 7.23 µM (active); in [23] it was 29.1 µM (active).
`C[C@H]1CNC(=O)[C@@H](Cc2ccc(C(F)(F)F)cc2)CCn2nncc2COC1`: the AC50 in [24] is > 52 µM (inactive); in [25], 35.5 µM (active).
On to `Nc1nn(-c2cccc(F)n2)cc1-c1ccccc1`, for which the EC50 in [26] is > 67.5 µM (inactive).
